Like-named read-outs stand apart in the source and are kept apart here.
Tests used:
Wistar rats [1] = assay: Reproductive toxicity screening combined with 28-day repeated dose toxicity study (OECD TG 422); type: in vivo, rat; conditions: for NOAEL, reproductive toxicity: OECD 422 v 2016, oral gavage
Text: Healthy and specific pathogen-free male and female (non-pregnant and nulliparous) Wistar Crl: WI(Han) rats were obtained from Charles River Laboratories (Germany). […] Upon arrival at BSL BIOSERVICE, the animals underwent an acclimatisation period of at least 5 days, and they were approximately 15–16 weeks old at the onset of the treatment period.

Wistar rats [2] = conditions: ref Food and Drug Research Laboratories 1972, cited from earlier work; for NOAEL, developmental toxicity: similar to OECD 414, conducted 1972, highest dose tested, GD 6–15
oestrogen receptors = tested on: oestrogen receptors; set-up: method as in Byford et al. 2002; conditions: ref Byford et al. 2002; cited from earlier work
Wistar rats [3] = conditions: ref Harlan 2012, cited from earlier work
rats = conditions: acute oral, rats, OECD 401; ref ECHA dissemination portal; cited from earlier work

**Q.** For COC(=O)c1ccc(O)cc1 [Methyl paraben, Methyl 4-hydroxybenzoate], which “NOAEL, reproductive toxicity” value (Wistar rats [1]) is on record?
**A.** NOAEL: 1000 (OECD 422; v 2016) mg/kg body weight/day

**Q.** And the “NOAEL, reproductive toxicity” value (Wistar rats [1]; listed as methyl paraben)?
**A.** 1000 mg/kg body weight/day

**Q.** What about the “Treatment-related effects in parental animals or pups” value (Wistar rats [1]; OECD TG 422) of the same compound?
**A.** no treatment-related effects

**Q.** What about the “Adrenals HP” value (Wistar rats [1]; P0, F1) of the same compound?
**A.** NAE / NAE

**Q.** And the Adrenals weight (Wistar rats [1]; P0, F1)?
**A.** NAE / NAE

**Q.** And the Brain weight (Wistar rats [1]; P0, F1)?
**A.** NAE / NAE

**Q.** And the “Coagulating gland HP” value (Wistar rats [1]; P0, F1)?
**A.** NAE / NAE

**Q.** And the “Epididymis HP” value (Wistar rats [1]; P0, F1)?
**A.** NAE / NAE

**Q.** What about the Epididymis weight (Wistar rats [1]; P0, F1) of the same compound?
**A.** NAE / NAE

**Q.** And the Fertility (Wistar rats [1]; P0, F1)?
**A.** NAE / NAE

**Q.** What about the Foetal development (Wistar rats [1]; P0, F1) of the same compound?
**A.** NAE / NAE

**Q.** What about the Gestation length (Wistar rats [1]; P0, F1) of the same compound?
**A.** NAE / NAE

**Q.** What about the Litter size (Wistar rats [1]; P0, F1) of the same compound?
**A.** NAE / NAE

**Q.** What about the Litter viability (Wistar rats [1]; P0, F1) of the same compound?
**A.** NAE / NAE

**Q.** What about the Liver weight (Wistar rats [1]; P0, F1) of the same compound?
**A.** NAE / NAE

**Q.** And the “Mammary gland HP; males” value (Wistar rats [1]; P0, F1)?
**A.** NAE / NAE

**Q.** And the Nipple development (Wistar rats [1]; P0, F1)?
**A.** NAE / NAE

**Q.** And the “No. of implantations, corpora lutea” value (Wistar rats [1]; P0, F1)?
**A.** NAE / NAE

**Q.** And the “No. of live births” value (Wistar rats [1]; P0, F1)?
**A.** NAE / NAE

**Q.** What about the Oestrus cyclicity (Wistar rats [1]; P0, F1) of the same compound?
**A.** NAE / NAE

**Q.** And the “Ovary HP” value (Wistar rats [1]; P0, F1)?
**A.** NAE / NAE

**Q.** And the Ovary weight (Wistar rats [1]; P0, F1)?
**A.** NAE / NAE

**Q.** And the Postimplantation loss (Wistar rats [1]; P0, F1)?
**A.** NAE / NAE

**Q.** And the Pre-implantation loss (Wistar rats [1]; P0, F1)?
**A.** NAE / NAE

**Q.** What about the “Presence of anomalies (external, visceral, skeletal)” value (Wistar rats [1]; P0, F1) of the same compound?
**A.** NAE / NAE

**Q.** What about the “Prostate HP” value (Wistar rats [1]; P0, F1) of the same compound?
**A.** NAE / NAE

**Q.** What about the Prostate weight (Wistar rats [1]; P0, F1) of the same compound?
**A.** NAE / NAE

**Q.** And the Reproduction (Wistar rats [1]; P0, F1)?
**A.** NAE / NAE

**Q.** What about the “Seminal vesicles HP” value (Wistar rats [1]; P0, F1) of the same compound?
**A.** NAE / NAE

**Q.** What about the Seminal vesicles weight (Wistar rats [1]; P0, F1) of the same compound?
**A.** NAE / NAE

**Q.** What about the “Testis HP” value (Wistar rats [1]; P0, F1) of the same compound?
**A.** NAE / NAE

**Q.** And the Testis weight (Wistar rats [1]; P0, F1)?
**A.** NAE / NAE

**Q.** What about the “Thyroid stimulating hormone level” value (Wistar rats [1]; P0, F1) of the same compound?
**A.** NAE / NAE

**Q.** And the Time to mating (Wistar rats [1]; P0, F1)?
**A.** NAE / NAE

**Q.** What about the “Triiodothyronine / thyroxine level” value (Wistar rats [1]; P0, F1) of the same compound?
**A.** NAE / NAE

**Q.** And the “Uterus HP (with cervix)” value (Wistar rats [1]; P0, F1)?
**A.** NAE / NAE

**Q.** And the “Uterus weight (with cervix)” value (Wistar rats [1]; P0, F1)?
**A.** NAE / NAE

**Q.** And the “Vagina HP” value (Wistar rats [1]; P0, F1)?
**A.** NAE / NAE

**Q.** What about the Vaginal smears (Wistar rats [1]; P0, F1) of the same compound?
**A.** NAE / NAE

**Q.** And the “NOAEL: No. of foetal deaths; viable foetuses” value (Wistar rats [2]; TG 414-like, highest dose)?
**A.** 550 mg/kg bw/day

**Q.** And the “No. of foetal deaths; viable foetuses” value (Wistar rats [2]; TG 414-like, up to 550 mg/kg bw/day)?
**A.** NAE / NAE

**Q.** What about the “Triiodothyronine / thyroxine level” value (Wistar rats [2]; dams, TG 414-like, up to 550 mg/kg bw/day) of the same compound?
**A.** NAE / NAE (dams)

**Q.** What about the “NOAEL, developmental toxicity” value (Wistar rats [2]) of the same compound?
**A.** NOAEL: 550 (highest dose tested) (similar to OECD 414; conducted 1972) mg/kg body weight/day

**Q.** And the “NOAEL, developmental toxicity” value (Wistar rats [2]; listed as methyl paraben)?
**A.** 550 mg/kg body weight/day

**Q.** And the “Rank of oestrogen receptor activation among shorter-chained parabens” value (oestrogen receptors)?
**A.** the least

**Q.** What does the source list for CCCOC(=O)c1ccc(O)cc1 [Propyl paraben, Propyl 4-hydroxybenzoate]?
**A.** NOAEL (Wistar rats [3]; historical OECD TG 422 feeding study, 15,000 ppm, first-generation offspring): 1125 mg/kg bw/day; NOAEL (Wistar rats [3]; historical OECD TG 422 feeding study, 15,000 ppm, parental females before pairing): 1076 mg/kg bw/day; NOAEL (Wistar rats [3]; historical OECD TG 422 feeding study, 15,000 ppm, parental males before pairing): 981 mg/kg bw/day; NOAEL (Wistar rats [3]; historical OECD TG 422 feeding study, highest concentration tested): 15,000 ppm; LD50 (rats): > 5000 (OECD 401; 1982) mg/kg bw
